According to patent publication US20240299387A1, “HETEROCYCLIC EGFR INHIBITORS FOR USE IN THE TREATMENT OF CANCER” (Blueprint Medicines Corporation, priority 2021, published 2024):

Experiments:
[1] = molecular target: T1, EGFR (L858R T790M C797S) (Homo sapiens, UniProt P00533, C797S/L858R/T790M); assay: Biochemical EGFR inhibition assay (Caliper mobility shift), EGFR LRTMCS mutant; settings: LRTMCS (PH) IC50 (nM) @ 1 mM ATP (Num)
T1 construct: purchased SignalChem E10-122VG
How it was run: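 Caliper mobility shift read-out: product and substrate peptides separated by electrophoresis and quantified. Reactions at 25° C. taken to 10–20% peptide phosphorylation, quenched with 35 mM EDTA. Apparent IC50 from percent activity vs log [compound].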

[2] = molecular target: T2, EGFR L858R T790M in NCI-H1975 cell line (Homo sapiens, UniProt P00533, L858R/T790M); assay: NCI-H1975 pEGFR AlphaLISA assay; assay type: cell-based; settings: NCI-H1975 cells (EGFR L858R T790M), p-EGFR (Tyr1068), 4-5 hours incubation; read-out: Ext pEGFR H1975 GMean IC50 (nM) Protocol: @Pharmaron AlphaLISA (Num)
T2 construct: host or cells: NCI-H1975
T2 sequence (P00533 25-1210 T790M/L858R): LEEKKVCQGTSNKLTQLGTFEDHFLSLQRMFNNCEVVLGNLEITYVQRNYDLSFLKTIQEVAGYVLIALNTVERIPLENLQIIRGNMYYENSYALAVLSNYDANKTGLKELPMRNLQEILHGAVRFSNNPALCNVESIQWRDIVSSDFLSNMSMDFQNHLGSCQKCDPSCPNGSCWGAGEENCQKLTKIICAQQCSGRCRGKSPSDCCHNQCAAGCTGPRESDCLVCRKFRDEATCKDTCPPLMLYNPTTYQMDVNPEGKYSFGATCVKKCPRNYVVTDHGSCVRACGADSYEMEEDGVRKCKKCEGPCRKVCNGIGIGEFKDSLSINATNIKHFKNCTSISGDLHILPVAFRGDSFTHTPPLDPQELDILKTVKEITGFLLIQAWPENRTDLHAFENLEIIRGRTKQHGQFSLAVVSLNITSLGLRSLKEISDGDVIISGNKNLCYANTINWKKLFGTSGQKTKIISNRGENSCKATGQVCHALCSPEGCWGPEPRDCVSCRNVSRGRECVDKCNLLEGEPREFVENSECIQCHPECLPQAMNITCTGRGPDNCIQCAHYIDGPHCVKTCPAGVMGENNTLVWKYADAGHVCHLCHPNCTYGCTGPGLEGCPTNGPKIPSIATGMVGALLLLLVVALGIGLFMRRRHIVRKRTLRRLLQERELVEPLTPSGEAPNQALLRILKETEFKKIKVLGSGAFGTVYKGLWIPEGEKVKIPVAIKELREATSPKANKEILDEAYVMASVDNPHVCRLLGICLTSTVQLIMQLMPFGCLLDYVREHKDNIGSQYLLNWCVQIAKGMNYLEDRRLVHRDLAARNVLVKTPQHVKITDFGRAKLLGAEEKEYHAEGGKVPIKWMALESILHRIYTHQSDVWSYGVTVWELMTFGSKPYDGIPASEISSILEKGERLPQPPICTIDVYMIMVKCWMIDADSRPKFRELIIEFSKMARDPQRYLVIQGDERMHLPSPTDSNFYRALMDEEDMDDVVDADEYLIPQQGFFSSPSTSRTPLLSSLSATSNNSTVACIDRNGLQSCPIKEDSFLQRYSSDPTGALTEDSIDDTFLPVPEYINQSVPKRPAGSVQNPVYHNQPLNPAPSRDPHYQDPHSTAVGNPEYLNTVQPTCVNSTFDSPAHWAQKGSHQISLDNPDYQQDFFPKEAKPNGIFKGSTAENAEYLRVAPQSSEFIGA
How it was run: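 Phospho-EGFR measured by AlphaLISA after overnight donor-bead incubation; IC50 from percent pEGFR inhibition versus log concentration.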

[3] = system: EGFR mutant NSCLC (EGFR M+); settings: NSCLC patients; average treatment time to resistance; cited from earlier work

T1 sequence (P00533 25-1210 T790M/C797S/L858R): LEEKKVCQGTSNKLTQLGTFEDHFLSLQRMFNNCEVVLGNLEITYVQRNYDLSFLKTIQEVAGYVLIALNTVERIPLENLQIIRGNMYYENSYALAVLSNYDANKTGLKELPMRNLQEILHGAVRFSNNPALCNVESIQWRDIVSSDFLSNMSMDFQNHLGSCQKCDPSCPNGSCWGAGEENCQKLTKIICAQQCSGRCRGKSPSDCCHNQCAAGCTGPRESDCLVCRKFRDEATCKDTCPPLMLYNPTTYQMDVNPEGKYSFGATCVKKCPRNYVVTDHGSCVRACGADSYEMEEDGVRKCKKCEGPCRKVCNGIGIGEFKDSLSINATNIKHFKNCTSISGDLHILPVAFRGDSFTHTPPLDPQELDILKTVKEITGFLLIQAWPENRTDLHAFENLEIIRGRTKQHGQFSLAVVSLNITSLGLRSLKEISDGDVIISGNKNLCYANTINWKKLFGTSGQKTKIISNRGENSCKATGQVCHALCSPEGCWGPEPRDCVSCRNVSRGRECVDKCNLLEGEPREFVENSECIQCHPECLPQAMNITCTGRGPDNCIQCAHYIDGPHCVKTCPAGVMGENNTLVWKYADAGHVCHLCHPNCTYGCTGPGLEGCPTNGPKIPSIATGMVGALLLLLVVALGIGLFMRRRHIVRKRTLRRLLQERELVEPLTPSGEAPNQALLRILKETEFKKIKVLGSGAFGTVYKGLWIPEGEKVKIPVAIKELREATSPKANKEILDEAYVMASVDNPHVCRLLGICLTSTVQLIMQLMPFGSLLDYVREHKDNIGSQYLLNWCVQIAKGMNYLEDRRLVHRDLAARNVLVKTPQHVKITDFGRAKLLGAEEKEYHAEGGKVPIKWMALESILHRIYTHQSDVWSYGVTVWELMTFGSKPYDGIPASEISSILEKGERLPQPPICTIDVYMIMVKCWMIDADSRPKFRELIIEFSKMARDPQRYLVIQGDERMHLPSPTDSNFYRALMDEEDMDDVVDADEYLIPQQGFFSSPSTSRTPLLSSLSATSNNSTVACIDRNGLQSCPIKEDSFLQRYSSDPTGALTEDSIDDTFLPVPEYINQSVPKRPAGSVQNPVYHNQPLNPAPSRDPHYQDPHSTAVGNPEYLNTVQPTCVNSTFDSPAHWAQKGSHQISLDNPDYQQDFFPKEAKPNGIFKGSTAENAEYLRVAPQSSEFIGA

Row | IC50 [1] [nM] | IC50 [2] [nM] | Compound | time of treatment until resistance is observed [3]
1 | < 15 | 20 to 30 | CC(C)c1cnc(C(=O)N[C@H]2C[C@@H](C#N)C2)c2cnc(Nc3ccnc(N4CC[C@@H](O)[C@@](C)(F)C4)n3)cc12 [Example 81, N-((1r,3r)-3-cyanocyclobutyl)-6-((2-((3S,4R)-3-fluoro-4-hydroxy-3-methylpiperidin-1-yl)pyrimidin-4-yl)amino)-4-isopropyl-2,7-naphthyridine-1-carboxamide] | –
2 | < 15 | 30 to 50 | CC(C)c1cnc(C(=O)N[C@H]2C[C@@](C)(O)C2)c2cnc(Nc3ccnc(N4CC[C@@H](O)[C@@](C)(F)C4)n3)cc12 [Example 83, 6-((2-((3S,4R)-3-fluoro-4-hydroxy-3-methylpiperidin-1-yl)pyrimidin-4-yl)amino)-N-((1s,3s)-3-hydroxy-3-methylcyclobutyl)-4-isopropyl-2,7-naphthyridine-1-carboxamide] | –
3 | < 15 | 20 to 30 | CCO[C@H]1C[C@H](NC(=O)c2ncc(C(C)C)c3cc(Nc4ccnc(N5CC[C@@H](O)[C@@](C)(F)C5)n4)ncc23)C1 [Example 84, N-((1r,3r)-3-ethoxycyclobutyl)-6-((2-((3S,4R)-3-fluoro-4-hydroxy-3-methylpiperidin-1-yl)pyrimidin-4-yl)amino)-4-isopropyl-2,7-naphthyridine-1-carboxamide] | –
4 | < 15 | 20 to 30 | CNc1ccc(C(C)C)c2cc(Nc3ccnc(N4CC[C@@H](O)[C@@](C)(F)C4)n3)ncc12 [Example 91, (3S,4R)-3-fluoro-1-(4-((5-isopropyl-8-(methylamino)isoquinolin-3-yl)amino)pyrimidin-2-yl)-3-methylpiperidin-4-ol] | –
5 | 30 to 100 | > 50 | CNc1ncc(C(C)C)c2cc(Nc3ccnc(N4CC[C@@H](O)[C@@H](F)C4)n3)ncc12 [Example 92, (3S,4R)-3-fluoro-1-(4-((5-isopropyl-8-(methylamino)-2,7-naphthyridin-3-yl)amino)pyrimidin-2-yl)piperidin-4-ol] | –
6 | 30 to 100 | > 50 | CC(C)c1cnc(N(C)C)c2cnc(Nc3ccnc(N4CC[C@@H](O)[C@@H](F)C4)n3)cc12 [Example 94, (3S,4R)-1-(4-((8-(dimethylamino)-5-isopropyl-2,7-naphthyridin-3-yl)amino)pyrimidin-2-yl)-3-fluoropiperidin-4-ol] | –
7 | > 100 | > 50 | CNc1nnc(C(C)C)c2cc(Nc3ccnc(N4CC[C@@H](O)[C@@H](F)C4)n3)ncc12 [Example 95] | –
8 | – | – | C=CC(=O)Nc1cc(Nc2nccc(-c3cn(C)c4ccccc34)n2)c(OC)cc1N(C)CCN(C)C [osimertinib] | approximately 10 months
